Measurements reported in US6770597B2, “Benzohydrazide derivatives as herbicides and desiccant compositions containing them” (Ishihara Sangyo Kaisha, Ltd., priority 2002, dated 2004).

Columns and labels:
Assay type in all cases: in vivo
[1] = system: common ragweed (Ambrosia artemisiifolia L., AMBEL); assay: Greenhouse herbicide screen, post-emerge application, phytotoxicity rating; details: POST emergent, 63 g ai/ha, 14 days after application, scale 0-100
Excerpt: (§1) A standard greenhouse herbicide activity screening system was used to evaluate the herbicidal efficacy and crop safety of these test compounds. Seven broadleaf weed species including redroot pigweed (Amaranthus retrofiexus, AMARE), velvetleaf (Abutilon theophrasti, ABUTH), sicklepod (Cassia obtusifolia, CASOB), ivyleaf morningglory (Ipomoea hederacea, IPOHE), lambsquarters (Chenopodium album, CHEAL), common ragweed (Ambrosia artemisiifolia L., AMBEL), and cocklebur (Xanthium strumarium, XANST) were used as test species. Four grass weed species including green foxtail (Setaria viridis, SETVI), barnyardgrass (Echinochloa crus-galli, ECHCG), johnsongrass (Sorghum halepense, SORHA), and large crabgrass (Digitaria sanguinalis, DIGSA) were also used. In addition, four crop species, field corn (Zea mays L., var. Dekalb 535, CORN), soybean (Glycine max L., var. Pella 86, SOY), upland rice (Oryza sp., var.Cocodrie, RICE) and wheat (Triticum aestivum L.) were included.
(§2) All plants were grown in 10 cm square plastic pots which were filled with a sandy loam soil mix. For pre-emerge tests, seeds were planted one day prior to application of the test compounds. For post-emerge tests, seeds were planted 8-21 days prior to the test to allow emergence and good foliage development prior to application of the test substances. At the time of the post-emerge application, plants of all species were usually at the 2-3 leaf stage of development.
(§3) All test compounds were dissolved in acetone and applied to the test units in a volume of 187 l/ha. Test materials were applied at rates ranging from 15 g ai/ha to 1000 g ai/ha using a track sprayer equipped with a TJ8001E even flow flat fan spray nozzle. Plants were arranged on a shelf so that the top of the canopy (post-emerge) or top of the soil surface (pre-emerge) was 40-45 cm below the nozzle. Pressurized air was used to force the test solution through the nozzle as it was mechanically advanced (via electrically driven chain drive) over the top of all test plants/pots. This application simulates a typical commercial field herbicide application.
(§4) Pre-emergence tests were top watered immediately after treatment to incorporate the test materials, then routinely top-watered for normal growth. Post-emerge test units were always bottom-watered.
(§5) At 14 days after application of the test materials, phytotoxicity ratings were recorded. A rating scale of 0-100 was used as previously described in Research Methods in Weed Science, 2nd edition, B. Truelove, Ed., Southern Weed Science Society, Auburn University, Auburn, Ala., 1977. Briefly, “0” corresponds to no damage and “100” corresponds to complete death of all plants in the test unit. This scale was used both to determine efficacy against weed species and damage to crop species. Herbicide activity data for various compounds of this invention, which are shown by compound No. in Tables 1-12, are shown in Tables 13 and 14.

[2] = system: velvetleaf (Abutilon theophrasti, ABUTH); assay: as above; details: POST emergent, 63 g ai/ha, 14 days after application, scale 0-100
Excerpt: as §1, §2, §3, §4, §5

[3] = system: barnyardgrass (Echinochloa crus-galli, ECHCG); assay: as above; details: POST emergent, 63 g ai/ha, 14 days after application, scale 0-100
Excerpt: as §1, §2, §3, §4, §5

[4] = system: green foxtail (Setaria viridis, SETVI); assay: as above; details: POST emergent, 63 g ai/ha, 14 days after application, scale 0-100
Excerpt: as §1, §2, §3, §4, §5

[5] = system: cocklebur (Xanthium strumarium, XANST); assay: as above; details: POST emergent, 63 g ai/ha, 14 days after application, scale 0-100
Excerpt: as §1, §2, §3, §4, §5

[6] = system: lambsquarters (Chenopodium album, CHEAL); assay: as above; details: POST emergent, 63 g ai/ha, 14 days after application, scale 0-100
Excerpt: as §1, §2, §3, §4, §5

[7] = system: sicklepod (Cassia obtusifolia, CASOB); assay: as above; details: POST emergent, 63 g ai/ha, 14 days after application, scale 0-100
Excerpt: as §1, §2, §3, §4, §5

[8] = system: johnsongrass (Sorghum halepense, SORHA); assay: as above; details: POST emergent, 63 g ai/ha, 14 days after application, scale 0-100
Excerpt: as §1, §2, §3, §4, §5

[9] = system: redroot pigweed (Amaranthus retrofiexus, AMARE); assay: as above; details: POST emergent, 63 g ai/ha, 14 days after application, scale 0-100 (0 no damage, 100 complete death)
Excerpt: as §1, §2, §3, §4, §5

[10] = system: ivyleaf morningglory (Ipomoea hederacea, IPOHE); assay: as above; details: POST emergent, 63 g ai/ha, 14 days after application, scale 0-100
Excerpt: as §1, §2, §3, §4, §5

[11] = system: large crabgrass (Digitaria sanguinalis, DIGSA); assay: as above; details: POST emergent, 63 g ai/ha, 14 days after application, scale 0-100
Excerpt: as §1, §2, §3, §4, §5

[12] = system: common ragweed (Ambrosia artemisiifolia L., AMBEL); assay: Greenhouse herbicide screen, pre-emerge application, phytotoxicity rating; details: PRE emergent, 63 g ai/ha, 14 days after application, rating scale 0-100
Excerpt: as §1, §2, §3, §4, §5

[13] = system: velvetleaf (Abutilon theophrasti, ABUTH); assay: as above; details: PRE emergent, 63 g ai/ha, 14 days after application, rating scale 0-100
Excerpt: as §1, §2, §3, §4, §5

[14] = system: barnyardgrass (Echinochloa crus-galli, ECHCG); assay: as above; details: PRE emergent, 63 g ai/ha, 14 days after application, rating scale 0-100
Excerpt: as §1, §2, §3, §4, §5

[15] = system: green foxtail (Setaria viridis, SETVI); assay: as above; details: PRE emergent, 63 g ai/ha, 14 days after application, rating scale 0-100
Excerpt: as §1, §2, §3, §4, §5

[16] = system: cocklebur (Xanthium strumarium, XANST); assay: as above; details: PRE emergent, 63 g ai/ha, 14 days after application, rating scale 0-100
Excerpt: as §1, §2, §3, §4, §5

[17] = system: lambsquarters (Chenopodium album, CHEAL); assay: as above; details: PRE emergent, 63 g ai/ha, 14 days after application, rating scale 0-100
Excerpt: as §1, §2, §3, §4, §5

[18] = system: sicklepod (Cassia obtusifolia, CASOB); assay: as above; details: PRE emergent, 63 g ai/ha, 14 days after application, rating scale 0-100
Excerpt: as §1, §2, §3, §4, §5

[19] = system: johnsongrass (Sorghum halepense, SORHA); assay: as above; details: PRE emergent, 63 g ai/ha, 14 days after application, rating scale 0-100
Excerpt: as §1, §2, §3, §4, §5

[20] = system: redroot pigweed (Amaranthus retrofiexus, AMARE); assay: as above; details: PRE emergent, 63 g ai/ha, 14 days after application, rating scale 0-100
Excerpt: as §1, §2, §3, §4, §5

[21] = system: ivyleaf morningglory (Ipomoea hederacea, IPOHE); assay: as above; details: PRE emergent, 63 g ai/ha, 14 days after application, rating scale 0-100
Excerpt: as §1, §2, §3, §4, §5

[22] = system: large crabgrass (Digitaria sanguinalis, DIGSA); assay: as above; details: PRE emergent, 63 g ai/ha, 14 days after application, rating scale 0-100
Excerpt: as §1, §2, §3, §4, §5

## CC(=O)OC(=NN=C(C)C(C)(C)C)c1cc(-n2c(=O)cc(C(F)(F)F)n(C)c2=O)c(F)cc1Cl [Compound 5-2, 2-chloro-5-(3,6-dihydro-3-methyl-2,6-dioxo-4-(trifluoromethyl)-1(2H)-pyrimidinyl)-4-fluoro-N-(1,2,2-trimethylpropylidene)-benzenecarbohydrazonic Acid, Acetyl Ester]
[1]
  phytotoxicity rating AMBEL: 90
[2]
  phytotoxicity rating ABUTH: 100
[3]
  phytotoxicity rating ECHCO: 95
[4]
  phytotoxicity rating SETVI: 50
[5]
  phytotoxicity rating XANST: 99
[6]
  phytotoxicity rating CHEAL: 100
[7]
  phytotoxicity rating CASOB: 55
[8]
  phytotoxicity rating SORHA: 55
[9]
  phytotoxicity rating AMARE: 95
[10]
  phytotoxicity rating IPOHE: 100
[11]
  phytotoxicity rating DIGSA: 50
[12]
  phytotoxicity rating AMBEL: 60
[13]
  phytotoxicity rating ABUTH: 95
[14]
  phytotoxicity rating ECHCG: 40
[15]
  phytotoxicity rating SETVI: 70
[16]
  phytotoxicity rating XANST: 0
[17]
  phytotoxicity rating CHEAL: 100
[18]
  phytotoxicity rating CASOB: 55
[19]
  phytotoxicity rating SORHA: 70
[20]
  phytotoxicity rating AMARE: 100
[21]
  phytotoxicity rating IPOHE: 95
[22]
  phytotoxicity rating DIGSA: 60
